The values below come from doi:10.1101/2024.08.19.608619, “Discovery of potent SARS-CoV-2 nsp3 macrodomain inhibitors uncovers lack of translation to cellular antiviral response” (bioRxiv, 2024).

Assay [1] deals with T1, SARS-CoV-2 nsp3-mac1 (Severe acute respiratory syndrome coronavirus 2, UniProt P0DTD1). The assay is described as follows: biochemical. The format is biochemical. Conditions: SARS-CoV-2 nsp3 macrodomain TR-FRET single point. On the technique in general: Time-resolved FRET reads energy transfer from a long-lived donor to a nearby acceptor.
The target of assay [2] is T1, SARS-CoV-2 nsp3-mac1. The assay is described as follows: biochemical. More on the design: SARS-CoV-2 nsp3 macrodomain TR-FRET single point, per cent inhibition, n=2.
Where [3] appears, read: read-out: perc_inhibition_mean, batch_name=ASAP-0000389-001.
[4] abbreviates: read-out: perc_inhibition_mean, batch_name=ASAP-0000344-001.
[5] abbreviates: read-out: perc_inhibition_mean, batch_name=ASAP-0000456-001.
Where [6] appears, read: read-out: perc_inhibition_mean, batch_name=ASAP-0000475-001.
The mark [7] stands for this setting: read-out: perc_inhibition_mean, batch_name=ASAP-0000479-001.
Where [8] appears, read: read-out: perc_inhibition_mean, batch_name=ASAP-0000476-001.
Where [9] appears, read: read-out: perc_inhibition_mean, batch_name=ASAP-0000296-001.
The mark [10] stands for this setting: read-out: perc_inhibition_mean, batch_name=ASAP-0000358-001.
[11] abbreviates: read-out: perc_inhibition_mean, batch_name=ASAP-0000325-001.
The mark [12] stands for this setting: read-out: perc_inhibition_mean, batch_name=ASAP-0000246-001.
The mark [13] stands for this setting: read-out: perc_inhibition_mean, batch_name=ASAP-0000416-001.
[14] abbreviates: read-out: perc_inhibition_mean, batch_name=ASAP-0000421-001.
Where [15] appears, read: read-out: perc_inhibition_mean, batch_name=ASAP-0000363-001.

Like-named read-outs stand apart in the source and are kept apart here.

Take `O=C(c1cccnc1S)N1CCC(c2ccn3ncc(C(=O)N4CCCCC4)c3c2)CC1` [ASAP-0000389]: the perc_inhibition_mean in assay [1] (concentration 49.75 uM) was determined as 32.298%. Also, the perc_inhibition_mean in assay [1] (concentration 99.5 uM) worked out at 52.653%. Besides, in assay [2] (setting [3]), the inhibition at 49.75 µM is 32.3% and the inhibition at 99.5 µM came to 52.7%.

With `O=C(CCN(Cc1cccc(Cl)c1)C(=O)[C@H]1C[C@H](O)C1)N1CCNCC1` [ASAP-0000344], the perc_inhibition_mean is on record as -2.133% in assay [1] (concentration 49.75 uM, n=2) and -3.766% in assay [1] (concentration 99.5 uM, n=2). The inhibition at 49.75 µM in assay [2] (setting [4]) was -2.13%. The inhibition at 99.5 µM in assay [2] (setting [4]) is -3.77%.

`O=C(O)c1cnc(C(=O)N2CCC(c3ccn4ncc(C(=O)N5CCCCC5)c4c3)CC2)cn1` [ASAP-0000456]: the perc_inhibition_mean in assay [1] (concentration 49.75 uM) is on record as 27.543%. Moreover, the perc_inhibition_mean in assay [1] (concentration 99.5 uM) came to 46.435%. Also, in assay [2] (setting [5]), the inhibition at 49.75 µM was found to be 27.5% and the inhibition at 99.5 µM is 46.4%.

Regarding `CC(C)[C@@H](CCN(C)C(=O)c1cc2c(s1)CC[C@H](C)C2)Nc1ncnc2[nH]ccc12` [ASAP-0000475], the values for the perc_inhibition_mean in assay [1] (concentration 49.75 uM) and in assay [1] (concentration 99.5 uM) were -9.684% and -29.716%, respectively. For the same compound, the inhibition at 49.75 µM in assay [2] (setting [6]) was -9.68%. Moreover, in assay [2] (setting [6]), the inhibition at 99.5 µM is -29.7%.

On to `c1ccc(-c2cc(CNc3ncnc4[nH]ccc34)on2)cc1` [ASAP-0000064], for which the perc_inhibition_mean in assay [1] (concentration 100.0 uM) is given as -3.456%. Moreover, in assay [2] (read-out: perc_inhibition_mean, batch_name=ASAP-0000064-001), the inhibition at 100 µM is -3.46%.

For the compound `O=S(=O)(Nc1cnc2[nH]ncc2c1)c1cnn(C2CCCC2)c1` [ASAP-0000011], the perc_inhibition_mean in assay [1] (concentration 50.0 uM) is recorded as 0.415%. The inhibition at 50 µM in assay [2] (read-out: perc_inhibition_mean, batch_name=ASAP-0000011-001) amounted to 0.415%.

Turning to `CC(C)[C@@H]1C(=O)NCCN1c1ncnc2[nH]ccc12` [ASAP-0000479], the perc_inhibition_mean in assay [1] (concentration 49.75 uM) is given as 61.35%. The perc_inhibition_mean in assay [1] (concentration 99.5 uM) was 80.665%. In assay [2] (setting [7]), the inhibition at 49.75 µM came out at 61.4% and the inhibition at 99.5 µM came to 80.7%.

For the compound `Cc1c([C@@H](C)Nc2ncnc3[nH]ccc23)cnn1-c1ccccc1` [ASAP-0000476], the perc_inhibition_mean in assay [1] (concentration 49.75 uM) worked out at 28.129%; in assay [1] (concentration 99.5 uM), 41.664%. Further, the inhibition at 49.75 µM in assay [2] (setting [8]) came to 28.1%. In addition, the inhibition at 99.5 µM in assay [2] (setting [8]) was 41.7%.

`O=C(Nc1ccccc1)Nc1ccc(C(=O)N[C@H]2CC[C@H](CO)CC2)cc1` [ASAP-0000296]: in assay [1] (concentration 49.75 uM, n=2), the perc_inhibition_mean is on record as -0.639%. In addition, the perc_inhibition_mean in assay [1] (concentration 99.5 uM, n=2) was -2.577%. Moreover, in assay [2] (setting [9]), the inhibition at 49.75 µM was -0.639% and the inhibition at 99.5 µM was -2.58%.

Consider `Cc1ccc(C(=O)N2CCC(c3ccn4ncc(C(=O)N5CCCCC5)c4c3)CC2)c(=O)[nH]1` [ASAP-0000358], for which, in assay [1] (concentration 49.75 uM), the perc_inhibition_mean worked out at 3.307%. Besides, in assay [1] (concentration 99.5 uM), the perc_inhibition_mean amounted to 3.662%. Besides, in assay [2] (setting [10]), the inhibition at 49.75 µM came out at 3.31% and the inhibition at 99.5 µM came out at 3.66%.

Turning to `N[C@@H]1CCC[C@@H](C(=O)N(CCC(=O)N2CCNCC2)Cc2cccc(Cl)c2)C1` [ASAP-0000325], the perc_inhibition_mean in assay [1] (concentration 49.75 uM, n=2) is given as -0.755%. Also, in assay [1] (concentration 99.5 uM, n=2), the perc_inhibition_mean is given as -1.468%. In assay [2] (setting [11]), the inhibition at 49.75 µM was -0.755% and the inhibition at 99.5 µM is -1.47%.

`Clc1cnc(OCCNc2ncnc3[nH]ccc23)c(Cl)c1` [ASAP-0000246]: the perc_inhibition_mean in assay [1] (concentration 50.0 uM) was -4.296%; in assay [1] (concentration 100.0 uM) it was -7.687%. Also, the inhibition at 50 µM in assay [2] (setting [12]) was -4.3%. The inhibition at 100 µM in assay [2] (setting [12]) is -7.69%.

For the compound `Cc1ccc(C(=O)N(CCC(=O)N2CCNCC2)Cc2cccc(Cl)c2)[nH]1` [ASAP-0000416], the perc_inhibition_mean in assay [1] (concentration 49.75 uM) was -5.904%. Besides, the perc_inhibition_mean in assay [1] (concentration 99.5 uM) was -3.936%. In assay [2] (setting [13]), the inhibition at 49.75 µM is -5.9% and the inhibition at 99.5 µM is -3.94%.

Take `O=C(c1c[nH]nn1)N1CCC(c2ccn3ncc(C(=O)N4CCCCC4)c3c2)CC1` [ASAP-0000421]: in assay [1] (concentration 49.75 uM), the perc_inhibition_mean worked out at 14.65%. Moreover, in assay [1] (concentration 99.5 uM), the perc_inhibition_mean came out at 25.652%. In addition, in assay [2] (setting [14]), the inhibition at 49.75 µM is 14.7% and the inhibition at 99.5 µM is 25.7%.

As for `O=C(Cc1n[nH]c2c1CCCC2)Nc1cnc2[nH]ncc2c1` [ASAP-0000042], the perc_inhibition_mean in assay [1] (concentration 50.0 uM) is -1.262%. Also, the inhibition at 50 µM in assay [2] (read-out: perc_inhibition_mean, batch_name=ASAP-0000042-001) was -1.26%.

As to `Oc1ccccc1CNc1ncnc2cccnc12` [ASAP-0000363], in assay [1] (concentration 49.75 uM), the perc_inhibition_mean is recorded as -1.837%. In addition, the perc_inhibition_mean in assay [1] (concentration 99.5 uM) is recorded as -0.535%. For the same compound, in assay [2] (setting [15]), the inhibition at 49.75 µM was -1.84% and the inhibition at 99.5 µM was -0.535%.
